Experimental data from US20200338056A1, “INDUCTION OF SENESCENCE USING PROTON PUMP INHIBITORS” (THE METHODIST HOSPITAL SYSTEM, priority 2016, published 2020).
“Also recorded” adds a separate entry of the source.

Legend:
[1] = tested on: Human microvascular endothelial cells (ECs); assay: Senescence-associated β-galactosidase (SA-β-gal) staining with SYTO cell count; assay type: cell-based; conditions: for endothelial senescence / aging (overall finding): chronic exposure of human ECs; for SA-β-gal-positive cells / total cell count per microscopic field (SYTO-green staining): chronic treatment, at P6, vs vehicle
Method: (§1) Cell culture. Human microvascular endothelial cells (ECs) purchased from Lonza (cat # CC-2543, Basel, Switzerland) were cultured continuously for three passages from passage (P) 4 to P6 in the presence of clinically relevant doses of esomeprazole or vehicle (DMSO) (Shin J M, Kim N. Pharmacokinetics and pharmacodynamics of the proton pump inhibitors. Journal of neurogastroenterology and motility. 2013; 19:25-35). All in vitro experiments were performed at P6 upon confluency. ECs were cultured and maintained in EBM-2 Basal Medium (cat # CC-3156, Lonza, Basel, Switzerland) supplemented with EGM-2 MV SingleQuots™ Kit—growth factors, cytokines, and antibiotics (cat # CC-4147, Lonza, Basel, Switzerland).
Senescence-associated β-galactosidase (SA-β-gal) staining. Senescence of ECs was measured using the Cellular Senescence Assay kit from Cell Biolabs, Inc. (Cat: CBA-230, San Diego, Calif.). The protocol was performed according to the manufacturer's guide. Briefly, Ecs treated continuously for 3 passages with esomeprazole or vehicle were plated in a 6 well plate. Upon confluency, cells were initially fixed and later incubated with SA-β-gal working solution for 16 hours in a non-humidified CO2 free incubator at 37° C. After incubation the cells were counter stained with SYTO® GREEN fluorescent nucleic acid stain (Life Technologies). Several random images per well were taken using light and fluorescent microscope. The SA-β-gal positive cells were counted manually and total cell number per field was quantified using NIH ImageJ software.

[2] = tested on: Human microvascular endothelial cells (ECs); assay: Nitric oxide by DAF-2DA live cell imaging; assay type: cell-based; conditions: ECs treated chronically, vs vehicle
Method: (§2) Cell culture. Human microvascular endothelial cells (ECs) purchased from Lonza (cat # CC-2543, Basel, Switzerland) were cultured continuously for three passages from passage (P) 4 to P6 in the presence of clinically relevant doses of esomeprazole or vehicle (DMSO) (Shin J M, Kim N. Pharmacokinetics and pharmacodynamics of the proton pump inhibitors. Journal of neurogastroenterology and motility. 2013; 19:25-35). All in vitro experiments were performed at P6 upon confluency. […]
(§3) Measurement of superoxide and nitric oxide. Superoxide and nitric oxide were measured in ECs using live cell imaging dyes; DHE (Molecular Probes® cat # D-1168, Eugene, Oreg.) for superoxide and DAF-2DA (Sigma cat #50277, St. Louis, Mo.) for nitric oxide measurement according to the published protocol (Yepuri G, et al., Positive crosstalk between arginase-ii and s6k1 in vascular endothelial inflammation and aging. Aging cell. 2012; 11:1005-1016). Several images per well were captured using Olympus IX51 Inverted fluorescence microscope. Relative fluorescence intensities of images were quantified using NIH ImageJ software. The total NO concentration (NOx) was determined using the Griess colorimetric assay as previously described (Ghebremariam Y T, et al., Fxr agonist int-747 upregulates ddah expression and enhances insulin sensitivity in high-salt fed dahl rats. PloS one. 2013; 8:e60653).

[3] = tested on: Human microvascular endothelial cells (ECs); assay: Network formation assay on growth factor reduced matrigel (angiogenic capacity); assay type: cell-based; conditions: growth factor-depleted matrigel, vs vehicle
Method: as §1
Network formation assay to measure angiogenic capacity. In order to assess angiogenic capacity of ECs, growth factor reduced matrigel from BD Biosciences (cat #354230, San Jose, Calif.) was used. In brief, 24 well flat transparent plates were coated with 200 μl of matrigel/well and allowed to set at 37° C. for one hour. Subsequently, 1×10^5 cells/well were seeded and allowed to incubate for 16 hours at 37° C. Several images per well were obtained using Olympus IX51 Inverted fluorescence and bright field microscope. Network branching was quantified using NIH ImageJ software. Total length is equal to the summed length of all segments, branches and isolated branches not within the main network. […]

acid phosphatase = assay: Acid phosphatase activity assay, EC lysate; assay type: cell-based, human; conditions: ECs treated chronically, 5 and 10 μmol/L, P4-6, vs vehicle
Method: as §2
(§4) Lysosomal studies. Cellular pH, lysosomal cathepsin B and protein aggregation were measured in live ECs using pHrodo™ Green/Red dextran, 10,000 MW dye (cat: P35368/P35372, MOLECULAR PROBES®, Life Technologies, Carlsbad, Calif.), Magic Red™ Cathepsin B Assay Kit (cat: 938, ImmunoChemistry Technologies LLC, Bloomington, Minn.) and PROTEOSTAT® Protein aggregation assay (cat: ENZ-51023-KP002, Enzo Life Sciences, Inc., Farmingdale, N.Y.). The pHrodo™ Green dextran when endocytosed permits visualization of endosomal pH, with an inverse non-linear relationship of fluorescence intensity to pH. […] Fluorescence images were taken using Olympus IX51 Inverted fluorescence microscope at 10× magnification and 40× for protein aggregation. All images were quantified using NIH ImageJ 1.47v software. […] Absorbance was measured using Tecan Infinite® M1000 PRO multimode reader at 405 nm (Tecan, Mannedorf, Switzerland).

[4] = tested on: Human microvascular endothelial cells (ECs); assay: BrdU cell proliferation ELISA; assay type: cell-based; conditions: chronic exposure, 3 passages, vs vehicle
Method: as §1

PAI-1 = assay: Western blot for PAI-1 protein expression; assay type: cell-based, human; conditions: vs vehicle
Method: as §1
Western blot analysis. Preparation of cell lysate, SDS-PAGE, transfer of proteins onto membrane and western blotting was performed as described previously (Rajapakse A G, et al., Hyperactive s6k1 mediates oxidative stress and endothelial dysfunction in aging: Inhibition by resveratrol. PloS one. 2011; 6:e19237.6). To detect PAI-1 protein expression anti-PAI-1 rabbit monoclonal antibody (Cell Signaling Technology, Inc. cat #11907S, Danvers, Mass.) was used and anti-α-Tubulin mouse monoclonal antibody (Sigma cat # T5168, St. Louis, Mo.) was used to normalize expression.

lysosomal cathepsin B = assay: Magic Red Cathepsin B assay in live ECs; assay type: cell-based, human; conditions: ECs treated chronically, 5 and 10 μmol/L, P4-6, vs vehicle
Method: as §2, §4

[5] = tested on: Human microvascular endothelial cells (ECs); assay: Quantitative PCR (Taqman) gene expression in ECs; assay type: cell-based; conditions: RT-PCR, vs vehicle
Method: as §1
Quantitative PCR and PCR array. Total RNA was isolated from cultured cells using PerfectPure RNA Cultured Cell Kit-50 from 5 PRIME (cat #2900319, San Francisco, Calif.) according to the manufacturer's instruction. Complementary DNA (cDNA) was prepared using gScript™ cDNA SuperMix (Quanta BioSciences, Inc. cat #95048, Beverly, Mass.). Quantitative PCR (qPCR) was performed using Taqman gene expression assays (Applied Biosystems, Foster City, Calif.). All genes analyzed for expression (listed in the table below) were normalized to GAPDH expression and expressed as relative fold changes using the ΔCt method of analysis. Gene expression of shelterin complex genes was quantified using SYBR™ Green Real Time PCR master mix. Primers for genes related to shelterin complex were obtained from Integrated DNA Technologies, Inc. (San Jose, Calif.) and are listed in the table below. RT^2 Profiler PCR Array (Qiagen, Hilden, Germany) was used to assess expression of selected genes associated with specific cellular functions following manufacturer's instructions. Name, catalog numbers and genes detected by the arrays are listed below.

[6] = tested on: Human microvascular endothelial cells (ECs); assay: Long term studies of endothelial histology (81 days after drug discontinued); assay type: cell-based; conditions: 5 or 10 μmol/L for 3 passages, then 81 days without drug, vs vehicle
Method: Long term studies of endothelial histology. After ECs were exposed to vehicle or ESO (5 or 10 uM) through 3 passages (P4-P6), the treatment with ESO or vehicle was discontinued when the cells reached confluency at P6. Subsequently the cells in all groups were maintained in endothelial growth medium which was routinely replaced with fresh medium every 48 hours for 81 days. Microphotographs were taken at regular intervals throughout, and on the final day of culture.

[7] = tested on: Human microvascular endothelial cells (ECs); assay: Telomere length by monochrome multiplex qPCR (MMqPCR); assay type: cell-based; conditions: vs vehicle
Method: as §1
Telomere length and telomerase activity. Telomere length in ECs was measured using monochrome multiplex qPCR (MMqPCR) assay as described previously (Ramunas J, et al., Transient delivery of modified mrna encoding tert rapidly extends telomeres in human cells. FASEB journal: official publication of the Federation of American Societies for Experimental Biology. 2015; 29:1930-1939). The telomeric repeat amplification protocol (TRAP) was performed using TRAPeze® Telomerase Detection Kit (EMD Millipore Inc. cat # S7700, Darmstadt, Germany). […] In brief, ECs treated with esomeprazole or vehicle were collected, counted and total protein was isolated from 100,000 cells. […]

[8] = tested on: Human microvascular endothelial cells (ECs); assay: Superoxide anion by dihydroethidium (DHE) live cell imaging; assay type: cell-based; conditions: ECs treated chronically, vs vehicle
Method: as §2, §3

[9] = tested on: Human microvascular endothelial cells (ECs); assay: Total nitrate/nitrite (NOx) by Griess colorimetric assay; assay type: cell-based; conditions: ECs treated chronically, vs vehicle
Method: as §2, §3

[10] = tested on: Human microvascular endothelial cells (ECs); assay: PROTEOSTAT protein aggregation assay in ECs; assay type: cell-based; conditions: ECs treated chronically, vs vehicle
Method: as §2, §4

[11] = tested on: Human microvascular endothelial cells (ECs); assay: RT2 Profiler PCR array, 331 genes from 5 pathways; assay type: cell-based; conditions: esomeprazole compared to vehicle (DMSO)
Method: as §1
(§5) Quantitative PCR and PCR array. Total RNA was isolated from cultured cells using PerfectPure RNA Cultured Cell Kit-50 from 5 PRIME (cat #2900319, San Francisco, Calif.) according to the manufacturer's instruction. […] Quantitative PCR (qPCR) was performed using Taqman gene expression assays (Applied Biosystems, Foster City, Calif.). All genes analyzed for expression (listed in the table below) were normalized to GAPDH expression and expressed as relative fold changes using the ΔCt method of analysis. Gene expression of shelterin complex genes was quantified using SYBR™ Green Real Time PCR master mix. […] Name, catalog numbers and genes detected by the arrays are listed below.

shelterin complex = assay: Shelterin complex gene expression by SYBR Green RT-PCR; assay type: cell-based, human; conditions: vs vehicle
Method: as §1, §5

[12] = tested on: N-acetyl-β-d-glucosaminidase; assay: N-Acetyl-β-D-Glucosaminidase (NAG) activity assay, EC lysate; assay type: cell-based, human; conditions: ECs treated chronically, vs vehicle
Method: as §2, §4

telomerase = assay: Telomeric repeat amplification protocol (TRAP) telomerase activity; assay type: cell-based, human; conditions: TRAP assay, esomeprazole and vehicle ECs
Method: Telomere length and telomerase activity. Telomere length in ECs was measured using monochrome multiplex qPCR ([…]) assay as described previously (Ramunas J, et al., Transient delivery of modified mrna encoding tert rapidly extends telomeres in human cells. FASEB journal: official publication of the Federation of American Societies for Experimental Biology. 2015; 29:1930-1939). The telomeric repeat amplification protocol (TRAP) was performed using TRAPeze® Telomerase Detection Kit (EMD Millipore Inc. cat # S7700, Darmstadt, Germany). Experiment was performed according to the manufacturer's instructions. In brief, ECs treated with esomeprazole or vehicle were collected, counted and total protein was isolated from 100,000 cells. The amount of lysate used per reaction was normalized to the amount of 1,000 cells for ECs and 500 cells for telomerase positive control (PC). In short, TRAP was performed at 30° C. for 30 minutes and resulting products were amplified in a 29 cycle PCR reaction. Heat inactivated (hi) lysate samples for each condition were used as internal negative controls.

[13] = tested on: Human microvascular endothelial cells (ECs); assay: Lysosomal pH by pHrodo Green/Red dextran fluorescence in live ECs; assay type: cell-based
Method: as §2, §4

[14] = poor metabolizers (about 3% of whites, 23% of Asians); cited from earlier work

Cc1nc2c(OCc3ccccc3)cccn2c1CC#N [SCH-28080]
endothelial senescence / aging (overall finding) [1]: accelerated | SA-β-gal-positive cells [1]: increased | total cell count per microscopic field (SYTO-green staining) [1]: decrease

COc1ccc2nc([S@@+]([O-])Cc3ncc(C)c(OC)c3C)[nH]c2c1 [esomeprazole]
NO generation (diamino fluorescein 2-diacetate staining) [2]: less | angiogenic capacity of ECs (network formation) [3]: impaired | activity of acid phosphatase (acid phosphatase): reduced | cell proliferation (5-bromo-2′-deoxyuridine assay) [4]: dose-dependently impaired | plasminogen activator inhibitor (PAI-1) protein expression (PAI-1): upregulated | activity of lysosomal cathepsin-B (lysosomal cathepsin B): reduced | expression of COL1A1 ([5]; EndoMT gene): upregulated | expression of SMAD3 ([5]; EndoMT gene): upregulated | expression of TWIST1 ([5]; EndoMT gene): upregulated | expression of DDAH1/2 ([5]; normalized to GAPDH): decrease | expression of eNOS ([5]; normalized to GAPDH): decrease | expression of iNOS ([5]; normalized to GAPDH): decrease | expression of von Willebrand factor [5]: decline | plasminogen activator inhibitor (PAI-1) message expression [5]: upregulated | expression of cell cycle inhibitor p21 gene ([5]; chronic treatment): increased | histology at the 3-month time point (cell loss, EndoMT) [6]: acceleration of EndoMT; also recorded: some cell loss or EndoMT | telomere length [7]: significant decrease | superoxide anion (dihydroethidium) [8]: more | total nitrate levels (Griess) [9]: decrease | protein aggregates [10]: increase | Expression of genes (PCR array) strongly up-regulated, Table 4 gene list ([11]; 52 genes listed AGTR1 to ZEB2): Expressin of genes (PCR array) that are strongly up-regulated (>2 fold) upon | Expression of genes (PCR array) strongly up regulated, Table 5 gene list ([11]; genes listed ACE to VWF): Expression of genes (PCR array) that are strongly up regulated (>2 fold) upon | expression of all 6 genes of the shelterin complex (TRF1, TRF2, POT1, RAP1, TIN2, TPP1) (shelterin complex): global downregulation | N-acetyl-β-d-glucosaminidase activity [12]: does not impair; also recorded: No difference | telomerase expression or activity (telomerase): neither group of ECs manifested telomerase expression or activity | endothelial senescence / aging (overall finding) [1]: accelerated | SA-β-gal-positive cells [1]: increased | total cell count per microscopic field (SYTO-green staining) [1]: decrease | fluorescence intensity of pH-sensitive dye (pHrodo Green), inversely related to lysosomal pH ([13]; ECs, esomeprazole 5 and 10 μmol/L, 3 passages (P4-6), vs vehicle (DMSO)): significantly reduced | pHrodo red fluorescence (lysosomal distribution) ([13]; second pH-sensitive dye, ESO treated vs vehicle treated ECs): reduced; also recorded: qualitatively similar findings | increase in plasma concentration in CYP2C19 poor metabolizers [14]: 3 fold
